Measurements: patent US12419869B2, “Methods of treating multiple sclerosis” (Vanda Pharmaceuticals Inc., priority 2021, dated 2025)

Key:
[1] = test system: adult subjects with relapsing MS; assay: Treatment-emergent adverse events and premature treatment discontinuation, phase III study (Study 1); format: in vivo, human; conditions: in vivo
Method: A total of 1438 MS patients have received PONVORY at doses of at least 2 mg daily. These patients were included in Study 1 (2-year active-controlled versus teriflunomide 14 mg) [see Clinical Studies (14)] and in a Phase 2 (6-month placebo-controlled) study in patients with MS and the uncontrolled extension studies.

[2] = test system: adult subjects with relapsing MS; assay: EDSS, time to first 12-week / 24-week confirmed disability accumulation (CDA); format: in vivo, human; conditions: for Hazard ratio, time to first 12-week CDA (3-month CDP), ponesimod vs teriflunomide: stratified Cox regression
Description: A 12-week CDA is an increase of at least 1.5 in EDSS for subjects with a baseline EDSS score of 0.0 or an increase of at least 1.0 in EDSS for subjects with a baseline EDSS score of 1.0 to 5.0, or an increase of at least 0.5 in EDSS for subjects with a baseline EDSS score≥5.5 which is to be confirmed after 12 weeks.
All EDSS measurements (with or without relapse, at a scheduled or unscheduled visit) were used to determine the onset of disability accumulation. However, EDSS scores used for confirmation of disability accumulation were obtained at a scheduled visit (i.e., unscheduled visits cannot be used as confirmatory visits) outside any ongoing relapse. In this context, relapse duration is defined as period between start and end dates if available and limited to 90 days from onset if end date is not available or duration is longer than 90 days.
In order to confirm that the EDSS increase is persistent, all EDSS measurements between the onset and the 12-week EDSS confirmation (minus 7-day visit time-window) need to show an increase in EDSS, meeting the criteria for accumulation of disability as defined above.
A 24-week CDA is an increase of at least 1.5 in EDSS for subjects with a baseline EDSS score of 0.0 or an increase of at least 1.0 in EDSS for subjects with a baseline EDSS score of 1.0 to 5.0, or an increase of at least 0.5 in EDSS for subjects with a baseline EDSS score≥5.5 which is to be confirmed after 24 weeks.
The primary endpoint was the annualized relapse rate (ARR) over the study period. Additional outcome measures included: 1) the number of new Gd-enhancing T1 lesions from baseline to Week 108, 2) the number of new or enlarging T2 lesions (without double-counting of lesions) from baseline to Week 108, and 3) the time to 3-month and 6-month confirmed disability progression. A confirmed disability progression was defined as an increase of at least 1.5 in EDSS for patients with a baseline EDSS score of 0, an increase of at least 1.0 in EDSS for patients with a baseline EDSS score of 1.0 to 5.0, or an increase of at least 0.5 in EDSS for patients with a baseline EDSS score at least 5.5, which was confirmed after 3 months and 6 months.

[3] = test system: adult subjects with relapsing MS; assay: Pulmonary function (percent predicted FEV1), Study 1; format: in vivo, human
Method: In Study 1, the reduction from baseline in percent predicted FEV1 at 2 years was 8.3% in PONVORY-treated patients compared to 4.4% in patients receiving teriflunomide 14 mg. In Study 1, 7 patients discontinued PONVORY because of pulmonary adverse events. There is insufficient information to determine the reversibility of the decrease in FEV1 or FVC after treatment discontinuation. PONVORY should be used with caution in patients with severe respiratory disease (i.e., pulmonary fibrosis, asthma, and chronic obstructive pulmonary disease). Spirometric evaluation of respiratory function should be performed during therapy with PONVORY if clinically indicated.

[4] = test system: adult subjects with relapsing MS; set-up: species or system human; conditions: in vivo
Description: Based on the individual case review, most ALT/AST increases ≥3×ULN occurred as a single transient asymptomatic episode, resolving with continued treatment or after protocol mandated treatment discontinuation. All but one case of bilirubin increase ≥2×ULN occurred in subjects with pre-treatment bilirubin increases. One case of potential Hy's law occurred in a subject with pre-existing transaminase elevation (ALT>5×ULN), and the event fully resolved within 2 weeks after treatment discontinuation.
In Study 1, elevations of ALT to 5-fold the upper limit of normal (ULN) or greater occurred in 4.6% of patients treated with PONVORY compared to 2.5% of patients who received teriflunomide 14 mg. […] The median time to an elevation of 3-fold the ULN was 3 months. The majority (89%) of patients with ALT increases 3-fold or greater the ULN continued treatment with PONVORY with values returning to less than three times the ULN within approximately 2-4 weeks.

SMILES: CCC/N=C1\S/C(=C\c2ccc(OC[C@H](O)CO)c(Cl)c2)C(=O)N1c1ccccc1C [Ponesimod, (R)-5-[3-chloro-4-(2,3-dihydroxy-propoxy)-benz[Z]ylidene]-2-([Z]-propylimino)-3-o-tolyl-thiazolidin-4-one]
- Day 1 AESI Atrioventricular block first degree ([1]; human): (0.5) %
- Day 1 AESI Bradycardia ([1]; human): (0.7) %
- Day 1 AESI Bundle branch block left ([1]; human): (0.2) %
- Day 1 AESI Bundle branch block right ([1]; human): (0.2) %
- Day 1 AESI Defect conduction intraventricular ([1]; human): (0.4) %
- Day 1 AESI Sinus arrhythmia ([1]; human): (0.2) %
- Day 1 AESI Sinus bradycardia ([1]; human): (0.2) %
- AE leading to discontinuation, SOC Blood and lymphatic system disorders ([1]; human, 2 year): (0.5) %
- AE leading to discontinuation, SOC Cardiac disorders ([1]; human, 2 year): (0.2) %
- AE leading to discontinuation, SOC Eye disorders ([1]; human, 2 year): (0.9) %
- AE leading to discontinuation, SOC Gastrointestinal disorders ([1]; human, 2 year): (0.7) %
- AE leading to discontinuation, SOC General disorders and administration site conditions ([1]; human, 2 year): (0.5) %
- AE leading to discontinuation, SOC Hepatobiliary disorders ([1]; human, 2 year): (0.5) %
- AE leading to discontinuation, SOC Investigations ([1]; human, 2 year): (2.1) %
- AE leading to discontinuation, SOC Musculoskeletal and connective tissue disorders ([1]; human, 2 year): (0.2) %
- AE leading to discontinuation, SOC Neoplasms benign, malignant and unspecified (incl cysts and polyps) ([1]; human, 2 year): (0.2) %
- AE leading to discontinuation, SOC Nervous system disorders ([1]; human, 2 year): (0.4) %
- AE leading to discontinuation, SOC Pregnancy, puerperium and perinatal conditions ([1]; human, 2 year): (0.5) %
- AE leading to discontinuation, SOC Psychiatric disorders ([1]; human, 2 year): (0.2) %
- AE leading to discontinuation, SOC Respiratory, thoracic and mediastinal disorders ([1]; human, 2 year): (1.2) %
- AE leading to discontinuation, SOC Skin and subcutaneous tissue disorders ([1]; human, 2 year): (0.2) %
- AE leading to discontinuation, SOC Social circumstances ([1]; human, 2 year): (0.4) %
- AE leading to discontinuation, SOC Vascular disorders ([1]; human, 2 year): (0.5) %
- AESI Effect on heart rate and rhythm (including hypotension) ([1]; human, 2 year): (5.1) %
- AESI Non-skin malignancy ([1]; human, 2 year): (0.2) %
- AESI Skin malignancy ([1]; human, 2 year): (0.9) %
- Discontinuation reason: Physician decision, Adverse event ([1]; human, 2 year): (5.1) %
- Discontinuation reason: Pre-specified study treatment discontinuation criteria ([1]; human, 2 year): (2.1) %
- Discontinuation reason: Subject decision, Tolerability related ([1]; human, 2 year): (1.4) %
- Incidence of basal cell carcinoma ([1]; human, 2 year): 0.4%
- Overall rate of infections ([1]; human, 2 year): 54.2%
- Subjects discontinued due to AEs or tolerability related reasons ([1]; human, 2 year): 6.5%
- Subjects who prematurely discontinued study treatment ([1]; human, 2 year): (16.6) %
- Subjects with at least one Drug-Related AE ([1]; human, 2 year): (49.2) %
- Subjects with at least one Severe AE ([1]; human, 2 year): (6.9) %
- TEAE ALT increased ([1]; human, 2 year): 19.5%
- TEAE headache ([1]; human, 2 year): 11.5%
- TEAE nasopharyngitis ([1]; human, 2 year): 19.3%
- TEAE upper respiratory tract infection ([1]; human, 2 year): 10.6%
- Adverse reaction: C-reactive protein increased ([1]; human, 2 years): 2%
- Adverse reaction: Cough ([1]; human, 2 years): 4%
- Adverse reaction: Dizziness ([1]; human, 2 years): 5%
- Adverse reaction: Dyspnea ([1]; human, 2 years): 5%
- Adverse reaction: Hepatic transaminase elevation ([1]; human, 2 years): 23%
- Adverse reaction: Hypercholesterolemia ([1]; human, 2 years): 2%
- Adverse reaction: Hypertension ([1]; human, 2 years): 10%
- Adverse reaction: Pain in extremity ([1]; human, 2 years): 4%
- Adverse reaction: Pyrexia ([1]; human, 2 years): 2%
- Adverse reaction: Somnolence ([1]; human, 2 years): 3%
- Adverse reaction: Urinary tract infection ([1]; human, 2 years): 6%
- Adverse reaction: Vertigo ([1]; human, 2 years): 2%
- Discontinuation reason: Lost to follow-up [1]: (0.4) %
- Discontinuation reason: Physician decision [1]: (7.1) %
- Discontinuation reason: Physician decision, Lack of efficacy/treatment failure [1]: (0.7) %
- Discontinuation reason: Physician decision, Other [1]: (1.2) %
- Discontinuation reason: Reason not provided [1]: (0.2) %
- Discontinuation reason: Subject decision [1]: (6.9) %
- Discontinuation reason: Subject decision, Efficacy related [1]: (1.2) %
- Discontinuation reason: Subject decision, Not known [1]: (0.9) %
- Discontinuation reason: Subject decision, Other [1]: (3.4) %
- Proportion of Patients with 3-month Confirmed Disability Progression ([2]; Kaplan-Meier estimates at Week 108): 10.8%
- Hazard ratio, time to first 24-week CDA, ponesimod vs teriflunomide ([2]; exploratory): 0.84
- Reduction of risk of 12-week CDA compared to teriflunomide 14 mg ([2]; not statistically significant): 17%
- Reduction of risk of 24-week CDA compared to teriflunomide 14 mg ([2]; not statistically significant): 16%
- Hazard ratio, time to first 12-week CDA (3-month CDP), ponesimod vs teriflunomide [2]: 0.83
- Hazard ratio, time to first 12-week CDA (3-month CDP), ponesimod vs teriflunomide ([2]; listed as PONVORY): 0.83 (p = 0.29)
- Hazard ratio, time to first 12-week CDA (3-month CDP), ponesimod vs teriflunomide ([2]; listed as ponesimod): 0.83
- Subjects with 12-week CDA ([2]; up to EOS): 10.1%
- Subjects with 24-week CDA ([2]; up to EOS): 8.1%
- Patients who discontinued because of pulmonary adverse events [3]: 7
- Reduction from baseline in percent predicted FEV1 at 2 years [3]: 8.3%
- Discontinuation rate because of elevations in hepatic enzymes ([4]; human, 2 year): 2.3%
- Patients with elevations of ALT to 5-fold the ULN or greater ([4]; human, 2 year): 4.6%
- Subjects with ALT increase >3×ULN (label: 3-fold the ULN or greater) ([4]; human, 2 year): 17.3%
- Subjects with ALT increase >8×ULN ([4]; human, 2 year): 0.7%
- Median time to an ALT elevation of 3-fold the ULN [4]: 3 months
- Patients with ALT increases 3-fold or greater the ULN who continued treatment [4]: 89%
- Time for ALT values returning to less than three times the ULN on continued treatment [4]: 2-4 weeks
